From PubChem BioAssay (NCI)
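Five concentrations, 48 hours, 96-well plates. At the GI50, growth is halved. The concentration for full growth arrest is given as TGI.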

Tests used:
Test in all cases: growth of human tumour cells (NCI), 48 h
NCI-H522 lung = test system: NCI-H522 lung
SF-539 CNS = test system: SF-539 CNS
TK-10 renal = test system: TK-10 renal
SK-MEL-28 melanoma = test system: SK-MEL-28 melanoma
SK-MEL-5 melanoma = test system: SK-MEL-5 melanoma
OVCAR-5 ovarian = test system: OVCAR-5 ovarian
HCT-15 colon = test system: HCT-15 colon
MDA-MB-231 breast = test system: MDA-MB-231 breast

Compound	GI50 (NCI-H522 lung) [µM]	TGI (NCI-H522 lung) [µM]	GI50 (SF-539 CNS) [µM]	TGI (SF-539 CNS) [µM]	GI50 (TK-10 renal) [µM]	TGI (TK-10 renal) [µM]	GI50 (SK-MEL-28 melanoma) [µM]	TGI (SK-MEL-28 melanoma) [µM]	GI50 (SK-MEL-5 melanoma) [µM]	TGI (SK-MEL-5 melanoma) [µM]	GI50 (OVCAR-5 ovarian) [µM]	TGI (OVCAR-5 ovarian) [µM]	GI50 (HCT-15 colon) [µM]	TGI (HCT-15 colon) [µM]	GI50 (MDA-MB-231 breast) [µM]	TGI (MDA-MB-231 breast) [µM]
COc1cc(-c2nn(-c3cccc(NC(=O)c4ccc(N5CCOCC5)c(C(F)(F)F)c4)c3)cc2-c2ccncc2)ccc1Cl	0.0606	0.915	0.181	0.552	1.22	19.5	0.936	> 84.8	0.126	0.966	1.2	> 86.4	0.226	> 100	0.384	3.54
S=c1nc(Cl)cc2[nH]c(Cl)cn12		6.22		5.69		> 100		> 100		17.5				> 100		43.9
COc1ccc2c(c1OC)OCC(CN(C)C)C2=O (centres undefined)		0.472		36.7		34.4		32.3		31.6		35.7		36.5		34.6
CCN(CC)CCCC(C)N=c1cc(Nc2cc(=NC(C)CCCN(CC)CC)c3cc(OC)ccc3o2)oc2ccc(OC)cc12 (centres undefined)	1.04	2.15	0.803	1.5	1.3	3.22	0.838	1.52	0.731	1.39	0.89	2.38	0.851	2.33	0.666	1.88
C=CN(C)S(C)(=O)=O	> 100	> 100	> 100	> 100			> 100	> 100	> 100	> 100	> 100	> 100	> 100	> 100	> 100	> 100
Cc1cc(O)cc(C)c1/C=C/c1cncc(-c2nn[nH]n2)c1	> 25	> 25	> 25	> 25	> 25	> 25	> 25	> 25	> 25	> 25	> 25	> 25	> 25	> 25	> 25	> 25
C[C@H](CCCNCCCNCCCN)[C@H]1CC[C@H]2[C@@H]3[C@H](OCCCN)C[C@H]4C[C@H](OCCCN)CC[C@]4(C)[C@H]3C[C@H](OCCCN)[C@]12C	11.1	58.6	0.98	3.46	2.18	51.6	0.573	4.13	0.626	3.29	17.5	> 100	3.14	> 100	0.652	18.8
O=c1oc2ccc(-n3c(=O)c4ccccc4c4ccccc4c3=O)cc2c2ccccc12		> 100		> 100		> 100		> 100		> 100		> 100		> 100		> 100
N#CC1=C(N)NC(=S)NC12Nc1ccccc1N2	20.8	80	42.4	> 100	46.4	> 100	47.4	> 100	18.1	61	46.8	> 100			> 100	> 100
O=C(NO)c1ccc(Cn2c(=O)n(-c3ccccc3F)c(=O)c3ccccc32)cc1	0.542	2.05	1.53	4.58	1.43	5.16	1.77	4.25	1.51	2.96	1.45	7	1.92	4.42	3.03	7.89
COc1cc(OC)c(NC(=O)c2cc3ccccc3cc2O)cc1Cl	2.56	6.12	3.04	12.9	3.15	8.57	3.6	17.3	2.4	6.34	4.7	34.5	3.38	19.4	1.78	4.78
Cc1ncsc1-c1ccc(CNC(=O)[C@@H]2C[C@@H](O)CN2C(=O)[C@@H](NC(=O)C2(C#N)CC2)C(C)(C)C)cc1	> 100	> 100	> 100	> 100	> 100	> 100	> 100	> 100	> 100	> 100	> 100	> 100	> 100	> 100	> 100	> 100
C=C1C(=O)O[C@@H]2C1C[C@@H](O)C(=C)CC/C=C(\C)CCC[C@H](C)[C@H]2OC(C)=O (some centres undefined)	3.55	12.7	12.8	26.3	2.11	5.57	4.78	23	2.76	10.8	10.3	22.4	3.04	14	4.07	18.6
COc1ccc(-c2c(-c3cc(OC)c(OC)c(OC)c3)noc2N)cc1	< 0.01				0.461	> 56.5	0.016	> 100	< 0.01	0.257	0.0441	> 70	< 0.0115	> 100	0.06	90.1
COc1ccc(CNc2nc3cc(N)cc(N)c3nc2-c2ccccc2)cc1	10	22			28.1	57.8	17.3	32.3	17.6	31.4	20.8	46.2	15.9	34.5	2.9	13.8
CCOC(=O)[C@@H](C)C[C@H](Cc1ccccc1)NC(=O)c1csc([C@@H](C[C@H](C(C)C)N(C)C(=O)[C@H](CC)NC(=O)[C@H]2CCCCN2C)OC(C)=O)n1	< 0.00167	0.362	0.00306	0.0098		> 16.7			< 0.00167	0.0432	0.0108	> 16.7	0.00628	> 16.7	0.00323	0.308
